According to US20080031868A1, “HUMAN LYSOZYME MEDICINE, ITS MANUFACTURING METHOD AND APPLICATION THEREOF” (priority 2005, published 2008):
≈ marks a conversion by molar mass, not a printed value.

Key:
[1] = tested on: Staphylococcus aureus MRSABAA-42; test: Bronchus pneumonia mice infected by Staphylococcus aureus MRSA BAA-42, treated by atomization inspiring; format: in vivo; conditions: mice lung; atomization inspired 6.0; the 1th day
From the text: A, atomization sucks gene recombinant Human Lysozyme (HLZ) cured bronchus pneumonia mice infected by Staphylococcus aureus MRSABAA-42
Choose the test lawn, after washing with the physiological saline, correcting by McB tubes for comparative tests bacterium solution concentration 2#MCF, turbidity of 2.7×10^11 CFU/ml, diluted with physiological saline separately into 10^−1, 10^−2, 10^−3 bacterium solution, drip the nose to infect for mice respectively (anaesthetize the mice with the pentobarbital first, 30 mg/kg, ip.), 0.05 ml a mouse. Observed the mice body changing, and killed parts of mice after infecting 48 h, fetch the whole lung to tissue homogenate, 10 times diluted by physiological saline, draw 0.1 m1 to MH agar plate surface, to cultivate last night 35° C., Gram staining, test under microscope, and count plate. At the same time recorded the number of death mice, and collect some mice tracheas, bronchus, lung tissue and do pathology tissue observing.
It is called medial lethal dose (LD50) that bacterium amount caused mice appearing lung pharmacology change and 50% died. LD50was used as experimental treatment amount.
Infected mice is divided into 10 groups at random according to the weight, 30 every groups.
Designed dosage: The concentration of recombinant human lysozyme medicine was 15000 u/ml as in clinical atomization therapy. Its dose was 15000 u per time and administrated one time everyday, I.e 0.5 mg per time everyday. The dose was 1.3×10-3 mg a mice (counted by weight of 20 g). […] To ensure the breathing amount of lysozyme, the breathing time were extended for 0.5 hour. Based on 0.5 mg/ml, the concentration of 0.25 mg/ml, 1.0 mg/ml and 2.0 mg/ml were set respectively as treatment dose.
The same group mice were put into the ultrasonic atomizer and then treated with human lysozyme atomized in the compression sprayer (PARL.BOY), twice a day, 5 days in succession.
Every group, from the infected day to calculae, the animal incidence and death were recorded 14 days in succession. Every group collected 2-3 mice and killed them the 14th day after infecting, did bacteriology detection after lung homogenate, killed surplus animal to fetch the trachea, bronchus, fixed in 10% of the formaldehyde solution after weighing, did pathology check.
The bacterial culture: A part of mice were killed after infecting 24 h, fetched the whole lung weighting, added 2 ml degerming PBS solution 10 times diluted, draw 0.1 mL to MH agar plate surface, to cultivate last night 35° C., counted in the cultivation plateform of 30-300 CF, if the two close level tissue fluid is 30-300 CFU, counted the low density (make 3 plateforms at the same time each tissue fluid, calculate the average). Collected 2 mice to do bacterial culture in every group at random in 5, 7, 14 days after administration.
Pathology detection: After dissecting the mice, observed the trachea, bronchus, syncretio of lung, chest wall and membrana pleuralis, the volume of lung and size of lung focus, the lung surface was congested, hydroncus, consolidation and atelectasis by the naked eye. Took out the trachea, bronchus and the whole lung tissue to fixed with 10% of the formaldehyde solution, draw materials.

[2] = tested on: Staphylococcus aureus MRSABAA-42; test: as above; format: in vivo; conditions: for accumulative survival number: 30 mice; for accumulative survival number / survival rate (%): 14 days; for survival elevation rate (%): versus infected model group; for bacterial number: mice lung
[3] = 0.75 mg/ml atomization inspired

CC[C@H]1OC(=O)[C@H](C)[C@@H](O[C@H]2C[C@@](C)(OC)[C@@H](O)[C@H](C)O2)[C@H](C)[C@@H](O[C@@H]2O[C@H](C)C[C@H](N(C)C)[C@H]2O)[C@](C)(OC)C[C@@H](C)C(=O)[C@H](C)[C@@H](O)[C@]1(C)O [Clarithromycin, reference compound]
bacterial number [1]: 241.9 ± 16.62 CFU/mL | average survival day (day, x ± s) [2, 3]: 7.67 ± 4.01 days | accumulative survival number [2, 3]: 5 | survival rate (%) [2, 3]: 16.7% | Death number(piece) ([2]; 0.75 mg/ml atomization inspired, day 1): 0 piece | Death number(piece) ([2]; 0.75 mg/ml atomization inspired, day 2): 0 piece | Death number(piece) ([2]; 0.75 mg/ml atomization inspired, day 3): 4 piece | Death number(piece) ([2]; 0.75 mg/ml atomization inspired, day 4): 4 piece | Death number(piece) ([2]; 0.75 mg/ml atomization inspired, day 5): 3 piece | Death number(piece) ([2]; 0.75 mg/ml atomization inspired, day 6): 4 piece | Death number(piece) ([2]; 0.75 mg/ml atomization inspired, day 7): 4 piece | Death number(piece) ([2]; 0.75 mg/ml atomization inspired, day 8): 2 piece | Death number(piece) ([2]; 0.75 mg/ml atomization inspired, day 9): 3 piece | Death number(piece) ([2]; 0.75 mg/ml atomization inspired, day 10): 1 piece | Death number(piece) ([2]; 0.75 mg/ml atomization inspired, day 11): 0 piece | Death number(piece) ([2]; 0.75 mg/ml atomization inspired, day 12): 0 piece | Death number(piece) ([2]; 0.75 mg/ml atomization inspired, day 13): 0 piece | Death number(piece) ([2]; 0.75 mg/ml atomization inspired, day 14): 0 piece | survival elevation rate (%) [2, 3]: 0.00% | average survival day (day, x ± s) ([2]; 1.5 mg/ml atomization inspired): 8.70 ± 4.65 days | accumulative survival number ([2]; 1.5 mg/ml atomization inspired): 12 | survival rate (%) ([2]; 1.5 mg/ml atomization inspired): 40.0% | Death number(piece) ([2]; 1.5 mg/ml atomization inspired, day 1): 0 piece | Death number(piece) ([2]; 1.5 mg/ml atomization inspired, day 2): 0 piece | Death number(piece) ([2]; 1.5 mg/ml atomization inspired, day 3): 4 piece | Death number(piece) ([2]; 1.5 mg/ml atomization inspired, day 4): 4 piece | Death number(piece) ([2]; 1.5 mg/ml atomization inspired, day 5): 3 piece | Death number(piece) ([2]; 1.5 mg/ml atomization inspired, day 6): 4 piece | Death number(piece) ([2]; 1.5 mg/ml atomization inspired, day 7): 0 piece | Death number(piece) ([2]; 1.5 mg/ml atomization inspired, day 8): 2 piece | Death number(piece) ([2]; 1.5 mg/ml atomization inspired, day 9): 0 piece | Death number(piece) ([2]; 1.5 mg/ml atomization inspired, day 10): 1 piece | Death number(piece) ([2]; 1.5 mg/ml atomization inspired, day 11): 0 piece | Death number(piece) ([2]; 1.5 mg/ml atomization inspired, day 12): 0 piece | Death number(piece) ([2]; 1.5 mg/ml atomization inspired, day 13): 0 piece | Death number(piece) ([2]; 1.5 mg/ml atomization inspired, day 14): 0 piece | survival elevation rate (%) ([2]; 1.5 mg/ml atomization inspired): 23.3% | average survival day (day, x ± s) ([2]; 3 mg/ml atomization inspired): 11.20 ± 3.53 days | accumulative survival number ([2]; 3 mg/ml atomization inspired): 18 | survival rate (%) ([2]; 3 mg/ml atomization inspired): 60.0% | Death number(piece) ([2]; 3 mg/ml atomization inspired, day 1): 0 piece | Death number(piece) ([2]; 3 mg/ml atomization inspired, day 2): 0 piece | Death number(piece) ([2]; 3 mg/ml atomization inspired, day 3): 0 piece | Death number(piece) ([2]; 3 mg/ml atomization inspired, day 4): 0 piece | Death number(piece) ([2]; 3 mg/ml atomization inspired, day 5): 0 piece | Death number(piece) ([2]; 3 mg/ml atomization inspired, day 6): 4 piece | Death number(piece) ([2]; 3 mg/ml atomization inspired, day 7): 4 piece | Death number(piece) ([2]; 3 mg/ml atomization inspired, day 8): 4 piece | Death number(piece) ([2]; 3 mg/ml atomization inspired, day 9): 0 piece | Death number(piece) ([2]; 3 mg/ml atomization inspired, day 10): 0 piece | Death number(piece) ([2]; 3 mg/ml atomization inspired, day 11): 0 piece | Death number(piece) ([2]; 3 mg/ml atomization inspired, day 12): 0 piece | Death number(piece) ([2]; 3 mg/ml atomization inspired, day 13): 0 piece | Death number(piece) ([2]; 3 mg/ml atomization inspired, day 14): 0 piece | survival elevation rate (%) ([2]; 3 mg/ml atomization inspired): 43.3% | average survival day (day, x ± s) ([2]; 6 mg/ml atomization inspired): 11.60 ± 3.48 days | accumulative survival number ([2]; 6 mg/ml atomization inspired): 20 | survival rate (%) ([2]; 6 mg/ml atomization inspired): 66.7% | Death number(piece) ([2]; 6 mg/ml atomization inspired, day 1): 0 piece | Death number(piece) ([2]; 6 mg/ml atomization inspired, day 2): 0 piece | Death number(piece) ([2]; 6 mg/ml atomization inspired, day 3): 0 piece | Death number(piece) ([2]; 6 mg/ml atomization inspired, day 4): 0 piece | Death number(piece) ([2]; 6 mg/ml atomization inspired, day 5): 0 piece | Death number(piece) ([2]; 6 mg/ml atomization inspired, day 6): 4 piece | Death number(piece) ([2]; 6 mg/ml atomization inspired, day 7): 4 piece | Death number(piece) ([2]; 6 mg/ml atomization inspired, day 8): 2 piece | Death number(piece) ([2]; 6 mg/ml atomization inspired, day 9): 0 piece | Death number(piece) ([2]; 6 mg/ml atomization inspired, day 10): 0 piece | Death number(piece) ([2]; 6 mg/ml atomization inspired, day 11): 0 piece | Death number(piece) ([2]; 6 mg/ml atomization inspired, day 12): 0 piece | Death number(piece) ([2]; 6 mg/ml atomization inspired, day 13): 0 piece | Death number(piece) ([2]; 6 mg/ml atomization inspired, day 14): 0 piece | survival elevation rate (%) ([2]; 6 mg/ml atomization inspired): 50.0% | The 4th day (bacterial number, head incomplete) ([2]; dose 1.5): 3.4 ± 0.25 | The 5th day (bacterial number, head incomplete) ([2]; dose 1.5, the 5th day): 64.40 ± 15.69 | The 4th day (bacterial number, head incomplete) ([2]; dose 3): 2.5 ± 0.22 | The 5th day (bacterial number, head incomplete) ([2]; dose 3, the 5th day): 60.70 ± 13.98 | The 4th day (bacterial number, head incomplete) ([2]; dose 6): 2.2 ± 0.12 | The 5th day (bacterial number, head incomplete) ([2]; dose 6, the 5th day): 57.60 ± 15.37 | bacterial number ([2]; atomization inspired 1.5, 0 day): 350 ± 21.5 CFU/mL | bacterial number ([2]; atomization inspired 1.5, the 1th day): 247.10 ± 21.31 CFU/mL | bacterial number ([2]; atomization inspired 1.5, the 3rd day): 146.90 ± 13.55 CFU/mL | bacterial number ([2]; atomization inspired 1.5, the 5th day): 64.40 ± 15.69 CFU/mL | bacterial number ([2]; atomization inspired 1.5, the 14th day): 28.0 ± 2.60 CFU/mL | bacterial number ([2]; atomization inspired 3.0, 0 day): 350 ± 21.5 CFU/mL | bacterial number ([2]; atomization inspired 3.0, the 1th day): 246.30 ± 19.03 CFU/mL | bacterial number ([2]; atomization inspired 3.0, the 3rd day): 141.10 ± 18.54 CFU/mL | bacterial number ([2]; atomization inspired 3.0, the 5th day): 60.70 ± 13.98 CFU/mL | bacterial number ([2]; atomization inspired 3.0, the 14th day): 24.0 ± 2.00 CFU/mL | bacterial number ([2]; atomization inspired 6.0, 0 day): 350 ± 21.5 CFU/mL | bacterial number ([2]; atomization inspired 6.0, the 3rd day): 134.60 ± 13.58 CFU/mL | bacterial number ([2]; atomization inspired 6.0, the 5th day): 57.60 ± 15.37 CFU/mL | bacterial number ([2]; atomization inspired 6.0, the 14th day): 10.0 ± 8.00 CFU/mL | 95% feasible limits of ED50 ([2]; mice survival over 14 days, Bliss method): 1760 to 4020 µg/mL | ED50 (median effective dose) ([2]; mice survival over 14 days, Bliss method, atomization inspired): 2550 µg/mL (≈ 3.41 mM)
